Experiments:
[1] = biological target: T1, Lysine-specific demethylase 4D (Homo sapiens, UniProt Q6B0I6); assay: Inhibition of human KDM4D (1 to 378 residues) catalytic domain measured formaldehyde dehydrogenase (FDH)-coupled fluorescence assay
T1 sequence (Q6B0I6 whole entry): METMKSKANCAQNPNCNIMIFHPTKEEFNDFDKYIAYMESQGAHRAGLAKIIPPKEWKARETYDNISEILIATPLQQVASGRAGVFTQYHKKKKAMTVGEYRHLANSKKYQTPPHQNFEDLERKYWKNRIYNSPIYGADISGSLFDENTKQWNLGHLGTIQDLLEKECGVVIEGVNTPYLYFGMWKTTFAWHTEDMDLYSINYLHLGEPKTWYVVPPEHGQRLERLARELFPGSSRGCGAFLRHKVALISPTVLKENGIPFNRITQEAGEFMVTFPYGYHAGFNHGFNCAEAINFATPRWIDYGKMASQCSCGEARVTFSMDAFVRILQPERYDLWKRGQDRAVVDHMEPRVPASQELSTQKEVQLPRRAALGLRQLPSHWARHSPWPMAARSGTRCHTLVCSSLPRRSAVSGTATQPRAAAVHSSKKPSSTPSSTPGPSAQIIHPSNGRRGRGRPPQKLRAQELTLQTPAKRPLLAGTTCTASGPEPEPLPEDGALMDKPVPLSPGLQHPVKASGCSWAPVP

[2] = biological target: T2, Lysine-specific demethylase 4A (Homo sapiens, UniProt O75164)
T2 sequence (O75164 whole entry): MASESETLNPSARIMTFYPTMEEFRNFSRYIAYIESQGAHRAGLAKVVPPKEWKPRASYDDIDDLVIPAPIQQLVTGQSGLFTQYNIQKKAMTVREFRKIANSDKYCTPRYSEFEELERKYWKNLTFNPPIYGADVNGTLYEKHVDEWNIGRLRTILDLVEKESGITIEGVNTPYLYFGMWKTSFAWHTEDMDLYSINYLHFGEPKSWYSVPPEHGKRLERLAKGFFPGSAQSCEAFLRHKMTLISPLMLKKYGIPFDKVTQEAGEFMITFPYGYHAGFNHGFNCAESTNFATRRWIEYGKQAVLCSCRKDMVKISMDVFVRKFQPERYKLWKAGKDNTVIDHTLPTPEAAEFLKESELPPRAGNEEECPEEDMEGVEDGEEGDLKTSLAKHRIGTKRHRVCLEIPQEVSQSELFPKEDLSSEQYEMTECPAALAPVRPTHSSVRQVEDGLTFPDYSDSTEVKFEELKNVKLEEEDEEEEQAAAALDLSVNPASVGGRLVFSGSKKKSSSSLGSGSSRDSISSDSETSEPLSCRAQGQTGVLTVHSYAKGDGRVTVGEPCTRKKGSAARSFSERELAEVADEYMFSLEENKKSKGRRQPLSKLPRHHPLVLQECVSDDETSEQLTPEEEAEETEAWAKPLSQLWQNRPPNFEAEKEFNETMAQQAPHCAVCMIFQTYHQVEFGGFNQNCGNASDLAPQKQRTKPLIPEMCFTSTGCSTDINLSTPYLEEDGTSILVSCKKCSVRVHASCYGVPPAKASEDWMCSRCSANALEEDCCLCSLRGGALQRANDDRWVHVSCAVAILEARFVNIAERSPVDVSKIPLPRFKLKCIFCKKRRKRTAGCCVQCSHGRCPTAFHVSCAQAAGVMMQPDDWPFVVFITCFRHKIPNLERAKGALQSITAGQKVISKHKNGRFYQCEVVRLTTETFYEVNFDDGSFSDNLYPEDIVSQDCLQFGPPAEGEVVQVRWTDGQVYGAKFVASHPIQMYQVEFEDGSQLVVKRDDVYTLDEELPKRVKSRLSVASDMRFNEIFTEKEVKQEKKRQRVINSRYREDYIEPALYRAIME

[3] = biological target: T3, Lysine-specific demethylase 4E (Homo sapiens, UniProt B2RXH2); assay: Inhibition of human KDM4E (1 to 378 residues) catalytic domain measured formaldehyde dehydrogenase (FDH)-coupled fluorescence assay
T3 sequence (B2RXH2 whole entry): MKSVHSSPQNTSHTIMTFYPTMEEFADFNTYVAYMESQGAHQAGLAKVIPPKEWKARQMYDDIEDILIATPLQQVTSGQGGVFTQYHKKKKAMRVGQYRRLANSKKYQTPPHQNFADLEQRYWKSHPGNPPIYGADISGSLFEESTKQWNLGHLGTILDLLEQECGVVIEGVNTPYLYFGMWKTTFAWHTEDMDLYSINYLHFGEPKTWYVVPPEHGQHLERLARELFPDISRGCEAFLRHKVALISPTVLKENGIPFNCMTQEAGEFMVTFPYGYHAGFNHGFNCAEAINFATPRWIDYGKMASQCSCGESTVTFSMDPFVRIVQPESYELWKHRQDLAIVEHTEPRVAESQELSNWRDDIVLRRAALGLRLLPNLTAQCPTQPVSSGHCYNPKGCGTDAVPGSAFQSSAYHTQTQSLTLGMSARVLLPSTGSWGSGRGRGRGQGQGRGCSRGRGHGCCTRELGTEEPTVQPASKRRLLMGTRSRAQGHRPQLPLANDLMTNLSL

IC50 [1]: 4 µM
IC50 [2]: 4 µM
IC50 [3]: 4 µM
SMILES: COC(=O)Cc1cc(O)n(-c2nc3ccccc3[nH]2)n1
